Measured values: US20260023070A1, “OPTOGENETIC ALPHA-SYNUCLEIN AGGREGATION SYSTEM-BASED COMPOUND SCREENING PLATFORM IN PD-hiPSC-mDA NEURONS” (The Johns Hopkins University, priority 2022, published 2026)

Test system: opto-α-syn PD hiPSC-derived mDA neurons
Assay: Light-induced α-syn aggregation and neurotoxicity in opto-α-syn PD hiPSC-derived mDA neurons
Format: cell-based, human
Settings: blue light 7 days; compared to DMSO control; significant at 1 and 10 nM CDC, 10 and 100 nM BAG
Method: Whether these potential hit compounds can inhibit α-syn aggregation and rescue aggregation-induced neuronal toxicity was tested on PD hiPSC-derived mDA neurons. The top 5 ranked small compounds in FIGURE SE were selected and these compounds to were used to treat opto-α-syn PD hiPSC-derived mDA neurons at three different concentrations (1 nM, 10 nM, 100 nM) with blue light stimulation. […] Overall, the two compounds were finally selected among the potential hit drugs from our novel opto-α-syn neuronal cell model-based primary screening (FIG. 11D), and they considerably rescued neuronal cell death from aggregation-induced TH^+ mDA neuron-selective toxicity in PD-iPSC derived neurons. To identify possible molecules involved in this compound-mediated recovery of TH^+ mDA neurons, RNA-sequencing (RNA-seq) analysis was performed with four different samples (dark condition with DMSO, blue light stimulation with DMSO, blue light stimulation with BAG treatment, and blue light stimulation with CDC treatment). To find BAG- or CDC-responsive genes, differentially expressed genes (DEGs) of DMSO-treated samples upon blue light stimulation were first extracted, and then the DEGs were filtered with criteria of which became non-DEGs in response to CDC or BAG treatment. […]
The effect of 5 selected compounds on opto-α-syn-expressing PD hiPSC-derived mDA neurons was evaluated. […]

## Cc1nc2cnc3ccc(C#Cc4cccnc4)cc3c2n1-c1ccc(C(C)(C)C#N)cc1 [BAG 956]
  survival rate of TH+ mDA neurons: significant increase
